In patent publication EP2698385A1, “Detection of synthetic cannabinoids” (priority 2012, dated 2014):
Where two headings read alike, the source gives them in different places.

Experiments:
Format in all cases: binding, sheep
Antibody to Immunogen II = assay: Competitive ELISA (Example 36), antibody RS1833B12, tracer ESC4555/LK959, standard JWH-018; details: Cross-reactants at 100 ng/ml; Antibody to Immunogen II
Method: An aqueous solution of each immunogen was formulated with Freund's Complete Adjuvant (FCA) to form an emulsion consisting of 2mg/ml* immunogen in 50% (v/v) FCA. Three sheep were immunised with this emulsion (1° immunisation), 0.25ml being intramuscularly injected at each of four sites in the flank of each animal. Subsequent immunizations (boosts) contained 1mg/ml* immunogen. All boosts were emulsified in 50% (v/v) Freund's Incomplete Adjuvant (FIA) and were administered in the same manner as the 1° immunisation, at monthly intervals. Blood sampling took place 7 to 14 days after each boost. *The general procedure for immunogen administration is outlined above, however, it was necessary to deviate from this protocol in some cases, due to reduced immunogen concentrations (Immunogens II, IV, VII and VIII) and/or amount available (Immunogen VIII). Any deviations from the protocol described are outlined in Table 1A below and highlighted in bold. Table 1A: Amount and volume of immunogens administered for primary and subsequent boosts
The appropriate antibody coating dilution was determined using standard ELISA checkerboard techniques. The plate was incubated overnight at 4°C, washed 4 times over 10 minutes with Tris buffered saline containing Tween 20 (TBST) and tapped dry. […] 75µl of conjugate (appropriate hapten-HRP) diluted in Tris buffer (pH 7.2) containing EDTA, D-mannitol, sucrose, thimerosal and BSA, was added to each of the wells. The appropriate dilution of conjugate was also determined using standard ELISA checkerboard techniques. The plate was incubated at 25°C for 1 hour. Excess unbound conjugate was removed by washing 6 times over a 10 minute period with TBST. 125µl of tetramethylbenzidine (TMB) substrate solution was added to each well of the plate that was then incubated for 20 minutes in the dark at room temperature. The reaction was terminated by addition of 125µl 0.2M H2SO4 to each well. The absorbance was then measured at 450nm using a microtiter plate reader. The data are inputted to a computer program called 'KC Junior'. It is a 4 parameter fit curve and allow the calculatation of concentrations between the standard runs.
In a similar manner to that described above, the wells of a 96-well microtiter plate were coated with the IgG fraction of the antiserum raised to Immunogens I or II.
The data set our in Tables 3 and 4 are generated using antibodies raised against the indicated Immunogens in a competitive binding assay with the indicated tracers, using the indicated standards: Table 2
Using the calibration curves generated and employing a single level of cross reactants, these were used to determine the cross-reactivity of each immunoassay with these substances. These are the standards used for the IC50 and cross-reactivity data generation • Immunogen I - JWH-018 • Immunogen II - JWH-018 • Immunogen IV - JWH-018 • Immunogen VII - JWH-015 • Immunogen VIII - JWH-018 Table 4: Cross reactivity of the competitive ELISAs for synthetic cannabinoids and their metabolites

Antibody to Immunogen I = details: Cross-reactants at 100 ng/ml; Antibody to Immunogen I
In short: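 Sheep anti-Immunogen I IgG coated on plates, then JWH-018 standards (0–40 ng/ml) competed with hapten-HRP conjugate for 1 h at 25°C. TMB read-out at 450 nm, 4-parameter fit. IC50 is the standard concentration giving 50% B/B0; cross-reactivity of related cannabinoids taken from the calibration curves.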

[1] = system: Antibody to Immunogen VII
[2] = system: Antibody to Immunogen VIII; details: Cross-reactants at 100 ng/ml; Antibody to Immunogen VIII
Antibody to Immunogen IV = details: Cross-reactants at 100 ng/ml; Antibody to Immunogen IV
[3] = Cross-reactants at 100 ng/ml, Antibody to Immunogen VII

Structure (SMILES) | %B/B0 (Antibody to Immunogen II) | %B/B0 (Antibody to Immunogen I) | %B/B0 [1, 3] | %B/B0 [2] | %B/B0 (Antibody to Immunogen IV) | %B/B0 ([1]; JWH-015 standard 1.25 ng/ml) | %B/B0 ([1]; JWH-015 standard 2.5 ng/ml) | %B/B0 ([1]; JWH-015 standard 5 ng/ml) | %B/B0 ([1]; JWH-015 standard 10 ng/ml) | %B/B0 ([1]; JWH-015 standard 20 ng/ml) | %B/B0 ([1]; JWH-015 standard 40 ng/ml) | %B/B0 ([1]; JWH-015 standard 80 ng/ml) | IC50 ([1]; Table 3c standard curve, standard concentration which produces 50% B/B0)
O=C(c1cccc2ccccc12)c1cn(CCCC(O)CF)c2ccccc12 (centres unmarked) [AM-2201 N-(4-hydroxypentyl) metabolite] | 46.55% | 3.80% | 52.75% | 36.41% | 43.62% |  |  |  |  |  |  |  | 
CCCCCn1cc(C(=O)c2c(C)ccc3ccccc23)c2ccccc21 [JWH 122 2-methylnaphthyl isomer] | 27.14% | 33.35% | 85.37% | 61.74% | 26.13% |  |  |  |  |  |  |  | 
CCC(C)Cn1cc(C(=O)c2cccc3ccccc23)c2ccccc21 (single isomer, unassigned) [JWH-018 N-(2-methylbutyl) isomer (JWH-073 2-methylbutyl homologue), JWH-018 N-(2-methylbutyl) isomer] | 28.60% | 3.61% | 58.84% | 85.16% | 29.88% |  |  |  |  |  |  |  | 
CCCCCn1c(C)c(C(=O)c2cccc3ccccc23)c2ccccc21 [JWH-007] | 66.06% | 32.96% | 27.77% | 61.76% | 60.63% |  |  |  |  |  |  |  | 
CCCn1c(C)c(C(=O)c2cccc3ccccc23)c2ccccc21 [JWH-015] | 65.67% | 14.67% | 17.84% | 92.27% | 93.20% | 75% | 62% | 54% | 43% | 34% | 26% | 20% | 5.910 ng/mL
CCCCCCn1cc(C(=O)c2cccc3ccccc23)c2ccccc21 [JWH-019] | 15.42% | 7.22% | 70.05% | 74.50% | 21.96% |  |  |  |  |  |  |  | 
O=C(O)CCCn1cc(C(=O)c2cccc3ccccc23)c2ccccc21 [JWH-073 N-butanoic acid metabolite] | 92.20% | 6.88% | 60.01% | 94.98% | 98.95% |  |  |  |  |  |  |  | 
CC(O)CCCn1cc(C(=O)c2cccc3ccccc23)c2ccccc21 (racemic) [(±)-JWH 018 N-(4-hydroxypentyl) metabolite] | 53.99% | 4.23% | 57.37% | 21.94% | 52.29% |  |  |  |  |  |  |  | 
CCCCCn1cc(C(=O)c2cccc3c(Cl)cccc23)c2ccccc21 [JWH-398 5-chloronaphthyl isomer] | 23.50% | 35.53% | 91.33% | 19.67% | 7.06% |  |  |  |  |  |  |  | 
CCCCCn1cc(C(=O)c2cccc3cc(C)ccc23)c2ccccc21 [JWH 122 6-methylnaphthyl isomer] | 39.17% | 12.55% | 86.66% | 20.46% | 8.12% |  |  |  |  |  |  |  | 
CCCCn1cc(C(=O)c2cccc3ccccc23)c2ccc(O)cc21 [JWH-073 6-hydroxyindole metabolite] | 28.03% | 5.93% | 61.83% | 93.52% | 74.89% |  |  |  |  |  |  |  | 
CC(O)CCn1cc(C(=O)c2cccc3ccccc23)c2ccccc21 (centres unmarked) [JWH-073 N-(3-hydroxybutyl) metabolite] | 54.52% | 3.10% | 43.39% | 94.04% | 53.52% |  |  |  |  |  |  |  | 
CC(C)CCn1cc(C(=O)c2cccc3ccccc23)c2ccccc21 [JWH 018 N-(3-methylbutyl) isomer (JWH-073 3-methylbutyl homologue), JWH 018 N-(3-methylbutyl) isomer] | 30.38% | 3.16% | 48.81% | 53.29% | 12.75% |  |  |  |  |  |  |  | 
CCCC(C)n1cc(C(=O)c2cccc3ccccc23)c2ccccc21 (single isomer, unassigned) [JWH-018 N-(1-methylbutyl) isomer] | 51.92% | 12.42% | 67.71% | 63.22% | 73.49% |  |  |  |  |  |  |  | 
CCCCCn1cc(C(=O)c2ccccc2OC)c2ccccc21 [RCS-4 2-methoxy isomer] | 42.74% | 29.14% | 87.27% | 29.32% | 15.28% |  |  |  |  |  |  |  | 
C=CCCCn1cc(C(=O)c2cccc3ccccc23)c2ccccc21 [JWH-022] | 11.72% | 4.51% | 58.44% | 28.94% | 10.61% |  |  |  |  |  |  |  | 
CCCCCn1cc(C(=O)c2cccc3ccc(C)cc23)c2ccccc21 [JWH 122 7-methylnaphthyl isomer] | 38.28% | 36.46% | 92.44% | 38.48% | 13.48% |  |  |  |  |  |  |  | 
O=C(c1cccc(I)c1)c1cn(CCCCCF)c2ccccc12 [AM-694 3-iodo isomer] | 48.58% | 31.37% | 89.49% | 12.71% | 37.20% |  |  |  |  |  |  |  | 
